Reference: DBAASP
In brackets after ≈: the same amount, converted by molar mass.

Tests used:
Assay in all cases: ≥ marks a high value that may be exact or a test limit, other limits are often not marked, values filed in µg/mL are converted to µM
[1] = test system: Escherichia coli NCTC 10418
[2] = test system: Staphylococcus epidermidis
Bacillus cereus = test system: Bacillus cereus
Escherichia coli = test system: Escherichia coli
Streptococcus uberis = test system: Streptococcus uberis
Staphylococcus aureus = test system: Staphylococcus aureus
Leuconostoc lactis = test system: Leuconostoc lactis
Micrococcus luteus = test system: Micrococcus luteus
Listeria innocua = test system: Listeria innocua
Pasteurella multocida = test system: Pasteurella multocida
[3] = test system: Escherichia coli KCTC 1682
[4] = test system: Bacillus subtilis KCTC 3068
[5] = test system: Pseudomonas aeruginosa KCTC 1637
[6] = test system: Salmonella typhimurium KCTC 1926
[7] = test system: Staphylococcus aureus KCTC 1621
[8] = test system: Staphylococcus epidermidis KCTC 1917
Escherichia coli K-12 = test system: Escherichia coli K-12
[9] = test system: Staphylococcus aureus USA 300

| MIC [2] [µM] | MIC (Bacillus cereus) [µM] | MIC (Escherichia coli) [µM] | MIC (Streptococcus uberis) [µM] | MIC (Staphylococcus aureus) [µM] | MIC (Leuconostoc lactis) [µM] | MIC (Micrococcus luteus) [µM] | MIC (Listeria innocua) [µM] | MIC (Pasteurella multocida) [µM] | Structure (SMILES) | also measured |
| --- | --- | --- | --- | --- | --- | --- | --- | --- | --- | --- |
| – | – | – | – | – | – | – | – | – | CC[C@H](C)[C@H](NC(=O)[C@H](CCCCN)NC(=O)[C@H](C)NC(=O)[C@H](C)N)C(=O)N[C@H](C(=O)N[C@@H](CC(C)C)C(=O)N[C@@H](CC(N)=O)C(=O)N1CCC[C@H]1C(=O)N[C@@H](CCCCN)C(=O)N[C@@H](Cc1ccccc1)C(=O)N[C@@H](CCCN=C(N)N)C(=O)N[C@H]1CSSC[C@@H](C(=O)O)NC(=O)[C@H](Cc2ccccc2)NC(=O)[C@H](C)NC(=O)[C@H](C)NC(=O)[C@H](Cc2ccccc2)NC1=O)[C@@H](C)CC [AAKIILNPKFRCFAAFC] | MIC [1]: ≥ 160 µM |
| 15.3 (≈ 25 µg/mL) | 15.3 (≈ 25 µg/mL) | > 61.4 | 7.36 (≈ 12 µg/mL) | 15.3 (≈ 25 µg/mL) | 3.68 (≈ 6 µg/mL) | 7.36 (≈ 12 µg/mL) | 15.3 (≈ 25 µg/mL) | ≥ 61.4 | CC[C@H](C)[C@H](NC(=O)[C@H](CC(=O)O)NC(=O)[C@H](Cc1ccccc1)NC(=O)[C@H](CC(C)C)NC(=O)CN)C(=O)N[C@H](C(=O)N[C@@H](CCCCN)C(=O)N[C@@H](CCCCN)C(=O)N[C@H](C(=O)N[C@@H](C)C(=O)N[C@@H](CO)C(=O)N[C@H](C(=O)N[C@H](C(=O)NCC(=O)NCC(=O)N[C@@H](CC(C)C)C(N)=O)[C@@H](C)CC)C(C)C)C(C)C)[C@@H](C)CC [GLFDIIKKVASVIGGL] | – |
| ≥ 60.8 | ≥ 60.8 | 60.8 (≈ 99.9 µg/mL) | ≥ 60.8 | > 60.8 | 7.29 (≈ 12 µg/mL) | ≥ 60.8 | 30.4 (≈ 50 µg/mL) | ≥ 60.8 | CC[C@H](C)[C@H](NC(=O)[C@H](CCCCN)NC(=O)[C@H](CO)NC(=O)[C@H](C)NC(=O)[C@@H](NC(=O)[C@H](CCCCN)NC(=O)[C@H](CCCCN)NC(=O)[C@@H](NC(=O)[C@@H](NC(=O)[C@H](CC(=O)O)NC(=O)[C@H](Cc1ccccc1)NC(=O)[C@H](CC(C)C)NC(=O)CN)C(C)C)[C@@H](C)CC)C(C)C)C(=O)NCC(=O)NCC(=O)N[C@@H](CC(C)C)C(N)=O [GLFDVIKKVASKIGGL] | – |
| ≥ 63.5 | ≥ 63.5 | > 63.5 | ≥ 63.5 | > 63.5 | 15.9 (≈ 25 µg/mL) | ≥ 63.5 | ≥ 63.5 | ≥ 63.5 | CC[C@H](C)[C@H](NC(=O)[C@@H](NC(=O)[C@H](CO)NC(=O)[C@H](C)NC(=O)[C@@H](NC(=O)[C@H](CCCCN)NC(=O)[C@H](CCCCN)NC(=O)[C@@H](NC(=O)[C@@H](NC(=O)[C@H](CC(=O)O)NC(=O)[C@H](Cc1ccccc1)NC(=O)[C@H](CC(C)C)NC(=O)CN)C(C)C)[C@@H](C)CC)C(C)C)C(C)C)C(=O)NCC(=O)NCC(=O)N[C@@H](C)C(N)=O [GLFDVIKKVASVIGGA] | – |
| ≥ 55.1 | ≥ 55.1 | > 55.1 | ≥ 55.1 | > 55.1 | 27.6 (≈ 50 µg/mL) | ≥ 55.1 | ≥ 55.1 | ≥ 55.1 | CC[C@H](C)[C@H](NC(=O)[C@@H](NC(=O)[C@H](CO)NC(=O)[C@H](C)NC(=O)[C@@H](NC(=O)[C@H](CCCCN)NC(=O)[C@H](CCCCN)NC(=O)[C@@H](NC(=O)[C@@H](NC(=O)[C@H](CC(=O)O)NC(=O)[C@H](Cc1ccccc1)NC(=O)[C@H](CC(C)C)NC(=O)CN)C(C)C)[C@@H](C)CC)C(C)C)C(C)C)C(=O)NCC(=O)N[C@@H](CC(C)C)C(=O)N[C@@H](C)C(=O)N[C@@H](CO)C(=O)N1CCC[C@H]1C(=O)O [GLFDVIKKVASVIGLASP] | – |
| ≥ 39.7 | ≥ 39.7 | > 39.7 | ≥ 39.7 | > 39.7 | ≥ 39.7 | ≥ 39.7 | ≥ 39.7 | ≥ 39.7 | CC[C@H](C)[C@H](NC(=O)[C@H](CO)NC(=O)CNC(=O)[C@@H](NC(=O)[C@H](CC(C)C)NC(=O)CN)[C@@H](C)CC)C(=O)NCC(=O)N[C@@H](CCCCN)C(=O)N[C@@H](C)C(=O)N[C@@H](CC(C)C)C(=O)NCC(=O)NCC(=O)N[C@@H](CC(C)C)C(=O)N[C@@H](CC(C)C)C(=O)N[C@H](C(=O)N[C@@H](CC(=O)O)C(=O)N[C@H](C(=O)N[C@@H](CC(C)C)C(=O)N[C@@H](CCCCN)C(=O)N1CCC[C@H]1C(=O)N[C@@H](CCCCN)C(=O)N[C@@H](CC(C)C)C(=O)N[C@@H](CCC(N)=O)C(=O)N[C@@H](C)C(=O)N[C@@H](C)C(=O)N[C@@H](CO)C(=O)O)C(C)C)C(C)C [GLIGSIGKALGGLLVDVLKPKLQAAS] | – |
| – | – | – | – | – | – | – | – | – | CC[C@H](C)[C@H](N)C(=O)NCC(=O)N[C@@H](CCCCN)C(=O)N[C@@H](CCCCN)C(=O)N[C@@H](Cc1ccccc1)C(=O)N[C@@H](CCCCN)C(=O)N[C@@H](CCCN=C(N)N)C(=O)N[C@H](C(=O)N[C@H](C(=O)N[C@@H](CCC(N)=O)C(=O)N[C@@H](CCCN=C(N)N)C(=O)N[C@H](C(=O)N[C@@H](CCCCN)C(=O)N[C@@H](CCCCN)C(=O)N[C@@H](Cc1ccccc1)C(=O)N[C@@H](CC(C)C)C(=O)N[C@@H](CCCN=C(N)N)C(=O)N[C@@H](CCCCN)C(=O)N[C@@H](CC(C)C)C(=O)O)[C@@H](C)CC)C(C)C)[C@@H](C)CC [IGKKFKRIVQRIKKFLRKL] | MIC [3]: 8 µM (≈ 19.2 µg/mL); MIC [4]: 2 µM (≈ 4.8 µg/mL); MIC [5]: 8 µM (≈ 19.2 µg/mL); MIC [6]: 4 µM (≈ 9.6 µg/mL); MIC [7]: 4 µM (≈ 9.6 µg/mL); MIC [8]: 2 µM (≈ 4.8 µg/mL) |
| – | – | – | – | – | – | – | – | – | CC[C@H](C)[C@H](NC(=O)[C@@H](N)CCCCN)C(=O)N[C@@H](CCCCN)C(=O)N[C@@H](CC(C)C)C(=O)N[C@@H](Cc1ccccc1)C(=O)N[C@@H](CCCCN)C(=O)N[C@@H](CCCCN)C(=O)N[C@@H](Cc1c[nH]c2ccccc12)C(=O)N1CCC[C@H]1C(=O)N[C@@H](CCCCN)C(=O)N[C@@H](Cc1ccccc1)C(=O)N[C@@H](CC(C)C)C(=O)N[C@@H](Cc1cnc[nH]1)C(=O)N[C@@H](CC(C)C)C(=O)N[C@@H](C)C(=O)N[C@@H](CCCCN)C(=O)N[C@@H](CCCCN)C(=O)N[C@@H](Cc1ccccc1)C(N)=O [KIKLFKKWPKFLHLAKKF] | MIC [3]: 2 µM (≈ 4.6 µg/mL); MIC [4]: 1 µM (≈ 2.3 µg/mL); MIC [5]: 2 µM (≈ 4.6 µg/mL); MIC [6]: 2 µM (≈ 4.6 µg/mL); MIC [7]: 2 µM (≈ 4.6 µg/mL); MIC [8]: 1 µM (≈ 2.3 µg/mL) |
| – | – | – | – | – | – | – | – | – | CC[C@H](C)[C@H](NC(=O)[C@H](CCCCN)NC(=O)[C@H](CCC(N)=O)NC(=O)[C@@H](NC(=O)[C@@H](NC(=O)[C@H](CCCCN)NC(=O)[C@@H](N)CCCCN)[C@@H](C)CC)C(C)C)C(=O)N[C@@H](CCCCN)C(=O)N[C@@H](CC(=O)O)C(=O)N[C@@H](Cc1ccccc1)C(=O)N[C@@H](CC(C)C)C(=O)N[C@@H](CCCCN)C(N)=O [KKIVQKIKDFLK] | MIC (Escherichia coli K-12): ≥ 106 µM |
| – | – | – | – | – | – | – | – | – | CC[C@H](C)[C@H](NC(=O)[C@H](CC(C)C)NC(=O)CNC(=O)[C@H](CO)NC(=O)[C@@H](NC(=O)[C@H](CC(C)C)NC(=O)[C@@H](N)CC(N)=O)C(C)C)C(=O)N[C@@H](CCC(=O)O)C(=O)N[C@@H](C)C(=O)N[C@@H](CCCNC(=N)N)C(=O)N[C@@H](CCCCN)C(=O)N[C@@H](Cc1ccc(O)cc1)C(=O)N[C@@H](CC(C)C)C(=O)N[C@@H](CCC(=O)O)C(=O)N[C@@H](CCC(N)=O)C(=O)N[C@@H](CC(C)C)C(=O)N[C@@H](Cc1cnc[nH]1)C(=O)N[C@@H](CCCNC(=N)N)C(=O)N[C@@H](CCCCN)C(=O)N[C@@H](CC(C)C)C(=O)N[C@@H](CCCCN)C(=O)N[C@@H](CC(N)=O)C(=O)N[C@@H](CCCNC(=N)N)C(=O)N[C@@H](CCCCN)C(=O)N[C@H](C(=O)O)C(C)C [NLVSGLIEARKYLEQLHRKLKNRKV] | MIC [9]: ≥ 92 µM; MIC (Escherichia coli K-12): ≥ 92 µM |
